Tests used:
Type in all cases: biochemical
Btk = biological target: T1, Btk (Homo sapiens, UniProt Q06187); test: Btk in vitro inhibitory activity (one of Method A TR-FRET, Method B electrophoretic mobility shift, Method C radiometric filter binding); details: wild-type Btk; read-out: Btk-WT IC50
T1 construct: purified from insect cells as a full-length construct containing a N-terminal 6X-His tag; His6 (N); made in house; host or cells: insect cells (Method C)
Method in brief: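 Method A: TR-FRET with 0.5 nM Btk at [ATP]=Km, EDTA-quenched, 665/615 nm ratio; Ki(app) converted to IC50. Method B: 1 nM full-length His6 human BTK, 1 μM FAM peptide, pH 7.5, mobility-shift product/sum ratio, 12-point 4-parameter fit. Method C: radiometric filter binding, 8 nM His-tagged BTK, 0.2 mg/mL poly-Glu-Tyr.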

TEC = biological target: T2, TEC (Homo sapiens, UniProt P42680); test: Inhibition of a panel of kinases (in vitro HotSpot kinase assay, 33P-ATP, 1 μM ATP); details: for IC50: HotSpot kinase assay, 1 μM ATP; for TEC/Btk: ratio of TEC IC50 to Btk IC50 (selectivity)
T2 sequence (P42680 1-631): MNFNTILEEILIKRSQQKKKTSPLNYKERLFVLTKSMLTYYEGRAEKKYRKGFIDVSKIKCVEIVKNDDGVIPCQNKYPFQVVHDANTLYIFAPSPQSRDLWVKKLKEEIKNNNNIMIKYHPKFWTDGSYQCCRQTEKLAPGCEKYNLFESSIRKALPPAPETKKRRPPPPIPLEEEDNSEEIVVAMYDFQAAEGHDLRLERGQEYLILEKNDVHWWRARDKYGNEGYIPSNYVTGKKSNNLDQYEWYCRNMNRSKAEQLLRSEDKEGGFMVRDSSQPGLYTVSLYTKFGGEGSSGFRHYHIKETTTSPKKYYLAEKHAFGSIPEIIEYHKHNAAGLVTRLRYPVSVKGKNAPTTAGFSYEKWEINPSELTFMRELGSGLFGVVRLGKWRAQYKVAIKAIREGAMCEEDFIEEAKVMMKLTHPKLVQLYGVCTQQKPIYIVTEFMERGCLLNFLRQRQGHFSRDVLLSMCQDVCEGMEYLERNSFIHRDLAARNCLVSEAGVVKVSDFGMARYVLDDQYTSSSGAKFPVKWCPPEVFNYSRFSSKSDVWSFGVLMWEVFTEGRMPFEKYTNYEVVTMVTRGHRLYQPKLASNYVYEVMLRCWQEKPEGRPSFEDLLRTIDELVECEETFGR
Method in brief: (§1)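 Purified kinase enzymes were incubated with an appropriate substrate and 33P-labelled ATP at 1 μM ATP. Inhibition was measured radiometrically from incorporation of the 33P label.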

panel of kinases = biological target: T3, panel of kinases (Homo sapiens, UniProt P51813); test: Inhibition of a panel of kinases (in vitro HotSpot kinase assay, 33P-ATP, 1 μM ATP), other kinases; details: BMX wild-type, read-out: BMX-WT IC50
T3 sequence (P51813 1-675): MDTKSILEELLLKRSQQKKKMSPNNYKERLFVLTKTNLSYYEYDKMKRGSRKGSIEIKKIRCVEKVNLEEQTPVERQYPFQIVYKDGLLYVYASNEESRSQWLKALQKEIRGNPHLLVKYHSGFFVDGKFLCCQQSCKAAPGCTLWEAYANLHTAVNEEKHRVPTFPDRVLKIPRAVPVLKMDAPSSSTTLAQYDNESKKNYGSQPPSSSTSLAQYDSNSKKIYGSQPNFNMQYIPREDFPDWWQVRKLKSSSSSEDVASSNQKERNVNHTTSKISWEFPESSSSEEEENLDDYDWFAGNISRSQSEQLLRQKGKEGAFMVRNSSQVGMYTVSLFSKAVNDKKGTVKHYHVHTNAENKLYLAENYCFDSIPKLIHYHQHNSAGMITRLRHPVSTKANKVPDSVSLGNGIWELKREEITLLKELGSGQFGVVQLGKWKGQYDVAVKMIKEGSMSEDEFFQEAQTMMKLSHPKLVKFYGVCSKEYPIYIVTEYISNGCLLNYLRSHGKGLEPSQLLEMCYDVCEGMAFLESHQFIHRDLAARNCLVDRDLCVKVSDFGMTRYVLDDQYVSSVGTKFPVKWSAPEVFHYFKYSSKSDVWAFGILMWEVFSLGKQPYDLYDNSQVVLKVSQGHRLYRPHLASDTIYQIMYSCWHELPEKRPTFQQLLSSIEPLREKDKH
Method in brief: as §1

T1 sequence (Q06187 whole entry): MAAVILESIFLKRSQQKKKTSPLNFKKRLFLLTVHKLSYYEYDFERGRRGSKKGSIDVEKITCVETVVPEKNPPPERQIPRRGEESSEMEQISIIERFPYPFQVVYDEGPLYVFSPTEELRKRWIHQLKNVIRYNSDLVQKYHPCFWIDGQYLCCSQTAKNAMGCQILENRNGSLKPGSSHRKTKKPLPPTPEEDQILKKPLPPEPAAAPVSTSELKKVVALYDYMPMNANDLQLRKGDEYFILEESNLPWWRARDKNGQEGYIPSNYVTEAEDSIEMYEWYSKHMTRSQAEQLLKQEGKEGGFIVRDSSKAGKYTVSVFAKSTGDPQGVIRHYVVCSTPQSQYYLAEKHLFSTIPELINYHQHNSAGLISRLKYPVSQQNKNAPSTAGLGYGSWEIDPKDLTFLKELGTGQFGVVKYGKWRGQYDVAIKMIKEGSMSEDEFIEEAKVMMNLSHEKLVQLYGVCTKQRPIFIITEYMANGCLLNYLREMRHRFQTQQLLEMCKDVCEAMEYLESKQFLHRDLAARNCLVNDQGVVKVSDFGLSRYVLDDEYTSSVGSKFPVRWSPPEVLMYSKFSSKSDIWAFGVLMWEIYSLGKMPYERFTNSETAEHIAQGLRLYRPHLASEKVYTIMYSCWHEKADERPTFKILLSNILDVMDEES

| SMILES | IC50 (Btk) | IC50 (TEC) | TEC/Btk (TEC) | IC50 (panel of kinases) |
| --- | --- | --- | --- | --- |
| C=CC(=O)N1CC[C@@H](Nc2n[nH]c3nccc(-c4ccc(CN5CCc6cc(C(C)(C)C)ccc6C5=O)c(F)c4)c23)C1 [Compound 43, 6-tert-butyl-2-{[2-fluoro-4-(3-{[(3R)-1-(prop-2-enoyl)pyrrolidin-3-yl]amino}-1H-pyrazolo[3,4-b]pyridin-4-yl)phenyl]methyl}-1,2,3,4-tetrahydroisoquinolin-1-one] | 2.76 nM | 599 nM | 217 | 394 nM |
| C[C@@H](NC(=O)c1nc(C(C)(C)C)no1)c1ccc(-c2ccnc3[nH]nc(N4CCNCC4)c23)cc1 [Example 238, 3-tert-butyl-N-[(1R)-1-{4-[3-(piperazin-1-yl)-1H-pyrazolo[3,4-b]pyridin-4-yl]phenyl}ethyl]-1,2,4-oxadiazole-5-carboxamide] | 4.24 nM | 4610 nM | 1087 | 2670 nM |
| C=CC(=O)N1CC[C@@H](Nc2n[nH]c3nccc(-c4cc(F)cc(CNC(=O)c5ccc(C(C)(C)C)cc5)c4)c23)C1 [Example 89, 4-tert-butyl-N-{[3-fluoro-5-(3-{[(3R)-1-(prop-2-enoyl)pyrrolidin-3-yl]amino}-1H-pyrazolo[3,4-b]pyridin-4-yl)phenyl]methyl}benzamide] | > 10000 nM | 3280 nM | >100 | 510 nM |
| C=CC(=O)N1CC[C@@H](Nc2n[nH]c3nccc(-c4cccc(NC(=O)c5ccc(C(C)(C)C)cc5)c4C)c23)C1 [Compound 9, 4-tert-butyl-N-[2-methyl-3-(3-{[(3R)-1-(prop-2-enoyl)pyrrolidin-3-yl]amino}-1H-pyrazolo[3,4-b]pyridin-4-yl)phenyl]benzamide] | 3.62 nM | 2460 nM | 680 | 1910 nM |

The remaining lines, values ahead:

| IC50 (Btk) | IC50 (TEC) | TEC/Btk (TEC) | IC50 (panel of kinases) | SMILES |
| --- | --- | --- | --- | --- |
| 1.48 nM | 1370 nM | 926 | 2110 nM | COC(=O)N1C[C@H](Nc2n[nH]c3nccc(-c4ccc(CNC(=O)c5noc(C(C)(C)C)n5)c(F)c4)c23)CC[C@@H]1C [Example 226, methyl (2S,5R)-5-{[4-(4-{[(5-tert-butyl-1,2,4-oxadiazole-3-carbonyl)amino]methyl}-3-fluorophenyl)-1H-pyrazolo[3,4-b]pyridin-3-yl]amino}-2-methylpiperidine-1-carboxylate] |
| 0.383 nM | 298 nM | 778 | 531 nM | CC(=O)N1C[C@H](Nc2n[nH]c3nccc(-c4ccc(CNC(=O)c5noc(C(C)(C)C)n5)c(F)c4)c23)CC[C@@H]1C [Example 229, N-{[4-(3-{[(3R,6S)-1-acetyl-6-methylpiperidin-3-yl]amino}-1H-pyrazolo[3,4-b]pyridin-4-yl)-2-fluorophenyl]methyl}-5-tert-butyl-1,2,4-oxadiazole-3-carboxamide] |
| 0.0776 nM | 33.4 nM | 430 | 30.7 nM | C=CC(=O)N[C@@H]1CCN(c2n[nH]c3nccc(-c4ccc(CNC(=O)c5cc(C(C)C)no5)c(F)c4)c23)C1 [Example 184, N-{[2-fluoro-4-(3-{(3R)-3-[(prop-2-enoyl)amino]pyrrolidin-1-yl}-1H-pyrazolo[3,4-b]pyridin-4-yl)phenyl]methyl}-3-(propan-2-yl)-1,2-oxazole-5-carboxamide] |
| 3.79 nM | 2250 nM |  | 2580 nM | CC(C)(C)c1nc(C(=O)NCc2ccc(-c3ccnc4[nH]nc(N[C@@H]5CC[C@H](N)C5)c34)cc2F)no1 [Example 315, N-{[4-(3-{[(1R,3S)-3-aminocyclopentyl]amino}-1H-pyrazolo[3,4-b]pyridin-4-yl)-2-fluorophenyl]methyl}-5-tert-butyl-1,2,4-oxadiazole-3-carboxamide] |
| 6.54 nM | 278 nM |  | 69.2 nM | C=CC(=O)N1CC[C@@H](Nc2n[nH]c3nccc(-c4ccc(CNC(=O)c5ccc6sc(C)nc6c5)c(F)c4)c23)C1 [Example 378, N-{[2-fluoro-4-(3-{[(3R)-1-(prop-2-enoyl)pyrrolidin-3-yl]amino}-1H-pyrazolo[3,4-b]pyridin-4-yl)phenyl]methyl}-2-methyl-1,3-benzothiazole-5-carboxamide] |

Source: patent publication US20180194762A1 (Pharmacyclics LLC, priority 2017, published 2018)
